This note sets out measurements from ChEMBL document CHEMBL1135093, “Phthalazine PDE4 inhibitors. Part 3: the synthesis and in vitro evaluation of derivatives with a hydrogen bond acceptor” (Bioorg Med Chem Lett, 2002).

Holding throughout (type): protein assay
For test [1], the target named is T1, Phosphodiesterase 4 (Homo sapiens, UniProt P27815+Q08499+Q07343+Q08493). Nature of the test: Affinity for rolipram binding site (RBS) of human neutrophil phosphodiesterase type IV (PDE4).
For test [2], the target named is T1, Phosphodiesterase 4. Briefly: Inhibition of human neutrophil phosphodiesterase type IV (PDE4).
Test [3] concerns the target T1, Phosphodiesterase 4. Briefly: Selectivity for rolipram binding site over phosphodiesterase 4.
Test [4] concerns the target T1, Phosphodiesterase 4. Nature of the test: Inhibition of rolipram binding to phosphodiesterase type IV (PDE4).
Test [5] addresses T1, Phosphodiesterase 4. Briefly: Inhibition of human phosphodiesterase type IV (PDE4) at 10e-7 M.
The target in test [6] is T1, Phosphodiesterase 4. Nature of the test: Inhibition of rolipram binding to phosphodiesterase type IV (PDE4) at 10e-6 M.
For test [7], the target named is T1, Phosphodiesterase 4. Nature of the test: Inhibition of rolipram binding to phosphodiesterase type IV (PDE4) at 10e-7 M.

Molecules are shown by their SMILES.

Usually Ki stands for the equilibrium dissociation constant of an inhibitor or competing ligand from its target. By IC50 is commonly meant the concentration that gives 50% inhibition. Lower therefore signals greater potency. `COc1ccc2c(c1)CN(S(C)(=O)=O)N=C2Cc1c(Cl)cncc1Cl`: on Phosphodiesterase 4 [1], the inhibition constant (Ki) is listed as 60 nM. Besides, the half-inhibitory concentration (IC50) at Phosphodiesterase 4 [2] is recorded as 21 nM. Further, the Ratio at Phosphodiesterase 4 [3] amounted to 2.9.
The matching figures for `COc1ccc2c(c1)CN(C(C)=O)N=C2Cc1c(Cl)cncc1Cl`: 397 nM, 51 nM and 7.8.
As for `COc1ccc2c(c1)CN(C(=O)C(C)C)N=C2Cc1c(Cl)cncc1Cl`, the inhibition constant (Ki) on Phosphodiesterase 4 [1] was 498 nM. On Phosphodiesterase 4 [2], the IC50 is 25 nM. Moreover, the Ratio at Phosphodiesterase 4 [3] was 19.9.
On Phosphodiesterase 4 [1], `COC(=O)N1Cc2cc(OC)ccc2C(Cc2c(Cl)cncc2Cl)=N1` came in with an inhibition constant Ki of 199 nM. Besides, the IC50 at Phosphodiesterase 4 [2] is given as 72 nM. For the same molecule, the Ratio on Phosphodiesterase 4 [3] amounted to 2.8.
One may read the inhibition as the relative decrease from the control value, in per cent. Read a low inhibition as a response near the control. For the molecule `COc1ccc2c(Cc3c(Cl)cncc3Cl)nncc2c1`, the Binding at Phosphodiesterase 4 [4] is 42%. Moreover, the inhibition against Phosphodiesterase 4 [5] came out at 0%.
For `CCC(=O)N1Cc2cc(OC)ccc2C(Cc2c(Cl)cncc2Cl)=N1`, at Phosphodiesterase 4 [1], the inhibitory constant (Ki) was 237 nM. Besides, the IC50 against Phosphodiesterase 4 [2] is 28 nM. Further, the Ratio on Phosphodiesterase 4 [3] came to 8.5.
Consider `COc1ccc2c(c1)CN(C=O)N=C2Cc1c(Cl)cncc1Cl`, for which, at Phosphodiesterase 4 [1], the inhibition constant Ki was determined as 138 nM. The inhibition against Phosphodiesterase 4 [5] is 45%.
Regarding `COc1ccc2c(Cc3c(Cl)cncc3Cl)nncc2c1OC1CCCC1`, the Ratio at Phosphodiesterase 4 [3] came out at 2.8.
In the case of `COc1ccc2c(c1)CNN=C2Cc1c(Cl)cncc1Cl`, the Binding at Phosphodiesterase 4 [6] came to 13%. At Phosphodiesterase 4 [5], the inhibition is 14%.
Turning to `COc1ccc2c(c1)CN(C(N)=O)N=C2Cc1c(Cl)cncc1Cl`, the Ki at Phosphodiesterase 4 [1] was 63 nM. On Phosphodiesterase 4 [2], this molecule registered a concentration for half-maximal inhibition (IC50) of 36 nM. For the same molecule, the Ratio at Phosphodiesterase 4 [3] was determined as 1.7.
For `CCOC(=O)C(=O)N1Cc2cc(OC)ccc2C(Cc2c(Cl)cncc2Cl)=N1` the same measures were 212 nM, 113 nM and 1.9.
On Phosphodiesterase 4 [1], `COc1ccc2c(c1)CN(C(=O)NO)N=C2Cc1c(Cl)cncc1Cl` gave an inhibitory constant (Ki) of 208 nM. For the same molecule, on Phosphodiesterase 4 [2], the concentration for half-maximal inhibition (IC50) was 85 nM. The Ratio on Phosphodiesterase 4 [3] turned out to be 2.4.
In turn, `COc1ccc2c(c1)CN(C(=O)N(C)C)N=C2Cc1c(Cl)cncc1Cl` yielded a Ki at Phosphodiesterase 4 [1] of 473 nM. This molecule also returned an inhibition on Phosphodiesterase 4 [5] of 35%.
On Phosphodiesterase 4 [7], `COc1ccc2c(c1)CN(C(=O)c1ccccc1)N=C2Cc1c(Cl)cncc1Cl` gave a Binding of 17%. Also, the IC50 against Phosphodiesterase 4 [2] amounted to 30 nM. Further, at Phosphodiesterase 4 [3], the Ratio was > 20.
For `COc1ccc2c(c1)CN(C(=O)Cc1ccccc1)N=C2Cc1c(Cl)cncc1Cl` the same measures were 36%, 12 nM and > 20.
For `COc1ccc2c(c1OC1CCCC1)CN(C(C)=O)N=C2Cc1c(Cl)cncc1Cl`, on Phosphodiesterase 4 [1], the Ki is listed as 128 nM. The molecule further came in with an IC50 against Phosphodiesterase 4 [2] of 30 nM. Further, on Phosphodiesterase 4 [3], the Ratio is 4.3.
`CNC(=O)N1Cc2cc(OC)ccc2C(Cc2c(Cl)cncc2Cl)=N1`: the Ki at Phosphodiesterase 4 [1] is recorded as 235 nM. At Phosphodiesterase 4 [2], the half-maximal inhibitory concentration (IC50) is 131 nM. The Ratio on Phosphodiesterase 4 [3] worked out at 1.8.
`COc1ccc2c(c1OC1CCCC1)CN(S(C)(=O)=O)N=C2Cc1c(Cl)cncc1Cl`: the inhibitory constant (Ki) at Phosphodiesterase 4 [1] was determined as 5 nM. For the same molecule, the IC50 on Phosphodiesterase 4 [2] was determined as 2 nM. Also, the Ratio at Phosphodiesterase 4 [3] was determined as 2.5.
